Legend:
[1] = system: Enterobacteriacese aerogenes; test: in vitro MIC test; type: cell-based; details: 24 h
Description: (§1) In Table I, below, the results of in vitro MIC tests are summarized. For this test each organism is inoculated in a series of test tubes containing nutrient medium and varying concentrations of Compound 53,607 to determine the minimal concentration of the antibiotic in mcg/ml which inhibits the growth of the organism over a period of 24 hours (MIC).

Escherischia coli = test: in vitro MIC test; type: cell-based; details: 24 h
Description: as §1

Klebsiella pneumoniae = test: in vitro MIC test; type: cell-based; details: 24 h
Description: as §1

Pseudomonas aeruginosa = test: in vitro MIC test; type: cell-based; details: 24 h
Description: as §1

Serratia marcescens = test: in vitro MIC test; type: cell-based; details: 24 h
Description: as §1

Eimeria acervulina = test: efficacy against coccidial infections in chickens; type: in vivo; details: for Weight Gain / Average degree of Infection: five days; for Average degree of Infection: lesion score 0 to 3; for Ratio: lesion score treated / infected control
Description: (§2) Efficacy data for Antibiotic Compound 53,607 and its salts against coccidial infections in chickens was obtained in the following fashion. Groups of 3-5 ten-day old SPF white leghorn cockerel chicks were fed a mash diet containing Antibiotic Compound 53,607 or its sodium and/or potassium salt uniformly dispersed therein. After being on this ration for 24 hours each chick was inoculated per os with oocysts of the particular species of Eimeria being tested. Other groups of 3-5 ten-day old chicks were fed a similar mash diet free of Antibiotic Compound 53,607 or its salts. They were also infected after 24 hours and served as infected controls. Yet other groups of 3-5 ten-day old chicks were fed the mash diet free of Antibiotic Compound 53,607 and were not infected with coccidia. These served as normal controls. The results of treatment were evaluated after five days in the case of E. acervulina, and six days for all other challenges.
(§3) ^1 The criteria used to measure anticoccidial activity consisted of
(§4) lesion scores of 0 to 4 for E. tenella after J. E. Lynch "A New Method fo
(§5) the Primary Evaluation of Anticoccidial Activity." , Am. J. Vet. Res.
(§6) 22:324-326 (1961); and 0 to 3 for the other species based on modification
(§7) of the scoring system devised by J. Johnson and W. H. Reid, "Anticoccidia
(§8) drugs. Lesion Scoring Techniques in Battery and Floor Pen Experiments in
(§9) Chicks.", Exp. Parasit. 28: 30-36(1970). A constant ratio was established
(§10) by dividing the lesion score of each treated group by the lesion score of […]

Eimeria brunetti = test: efficacy against coccidial infections in chickens; type: in vivo; details: for Average degree of Infection: lesion score 0 to 3; for Average degree of Infection / Weight Gain: six days; for Ratio: lesion score treated / infected control
Description: as §2, §3, §4, §5, §6, §7, §8, §9, §10

Eimeria maxima = test: efficacy against coccidial infections in chickens; type: in vivo; details: for Average degree of Infection: lesion score 0 to 3; for Average degree of Infection / Weight Gain: six days; for Ratio: lesion score treated / infected control
Description: as §2, §3, §4, §5, §6, §7, §8, §9, §10

Eimeria necatrix = test: efficacy against coccidial infections in chickens; type: in vivo; details: for Average degree of Infection: lesion score 0 to 3; for Average degree of Infection / Weight Gain: six days; for Ratio: lesion score treated / infected control
Description: as §2, §3, §4, §5, §6, §7, §8, §9, §10

Eimeria tenella = test: efficacy against coccidial infections in chickens; type: in vivo; details: for Average degree of Infection: lesion score 0 to 4
Description: as §2, §3, §4, §5, §6, §7, §8, §9, §10

rumen fluid = test: in vitro rumen technique, propionic acid production; parameters: species or system cow; details: for increase in propionic acid: comparison with Salinomycin
Description: The value of animal feeds generally has been determined directly by feeding the animal. British Patent Specification No. 1,197,826 details an in vitro rumen technique whereby the changes occurring in feeds brought about by microorganisms are measured more readily and with great accuracy in the evaluation of animal feeds. This technique involves the use of an apparatus in which the digestive processes of the animals are conducted and studied in vitro. The animal feeds, rumen inoculum and various growth promotants are introduced into and withdrawn from a laboratory unit under carefully controlled conditions and the changes taken place are studied critically and progressively during the consumption of the feed by the microorganisms. […] The change in propionic acid content is expressed as percent of the propionic acid content found in the control rumen fluid. Long term in vivo feeding studies are used to show a reliable correlation between propionic acid increase in the rumen fluid and improved animal performance.
Rumen fluid is collected from a fistulated cow which is fed on a commercial fattening ration plus hay. The rumen fluid is immediately filtered through cheese cloth, and 10 ml added to a 50 ml conical flask containing 400 mg. of standard substrate (68% corn starch+17% cellulose+15% extracted soybean meal), 10 ml. of a pH 6.8 buffer and the test compound. The flasks are gassed with oxygen free nitrogen for about two minutes, and incubated in a shaking water bath at 39° C. for about 16 hours. All tests are conducted in triplicate.
After incubation, 5 ml. of the sample is mixed with 1 ml. of 25% metaphosphoric acid. After 10 minutes 0.25 ml. of formic acid is added and the mixture centrifuged at 1,500 r.p.m. for 10 minutes. Samples are then analyzed by gas-liquid chromatograhy by the method of D. W. Kellog, J. Dairy Science, 52, 1690 (1969). Peak heights for acetic, propionic and butyric acids are determined for samples from untreated and treated incubation flasks.

solubility = type: physicochemical
[2] = system: Gram-positive microorganisms; test: inhibitory action against growth of Gram-positive microorganisms; type: cell-based; details: in vitro
Description: as §1

[3] = system: coccidial infections in poultry; test: activity against coccidial infections in poultry; type: in vivo
Description: as §2

[4] = 25 ppm in diet, value in parentheses (not explained)
[5] = 50 ppm in diet, value in parentheses (not explained)
[6] = 100 ppm in diet, value in parentheses (not explained)

## CC(=CC(C)C1OC2(CCC(C)(C3CCC(C)C4(OC(C5OC(O)(CO)C(C)CC5C)CC4C)O3)O2)CC(O)C1C)C(=O)C(C)CC(C)C(=O)O (stereo not drawn) [Antibiotic Compound 53,607]
[1]
  MIC: > 50 µg/mL
Escherischia coli
  MIC: > 50 µg/mL
Klebsiella pneumoniae
  MIC: > 50 µg/mL
Pseudomonas aeruginosa
  MIC: > 50 µg/mL
Serratia marcescens
  MIC: > 50 µg/mL
Eimeria acervulina; 25 ppm in diet
  Weight Gain: 7%
  Average degree of Infection: 2.0
  Ratio: 1.00
Eimeria acervulina; 50 ppm in diet
  Weight Gain: 18%
  Average degree of Infection: 2.0
  Ratio: 1.00
Eimeria acervulina; 100 ppm in diet
  Weight Gain: 22%
  Average degree of Infection: 1.2
  Ratio: 0.60
Eimeria acervulina; 200 ppm in diet
  Weight Gain: 2%
  Average degree of Infection: 1.5
  Ratio: 0.75
Eimeria acervulina; chickens, diet, 50 to 200 ppm
  controlling infections: effective in controlling infections
Eimeria brunetti; 25 ppm in diet
  Average degree of Infection: 2.6
  Ratio: 1.44
  Weight Gain: 47%
Eimeria brunetti; 50 ppm in diet
  Average degree of Infection: 1.0
  Ratio: 0.55
  Weight Gain: 49%
Eimeria brunetti; 100 ppm in diet
  Average degree of Infection: 0.4
  Ratio: 0.22
  Weight Gain: 47%
Eimeria brunetti; chickens, diet, 50 to 200 ppm
  controlling infections: effective in controlling infections
Eimeria maxima; 25 ppm in diet
  Average degree of Infection: 1.4
  Ratio: 0.88
  Weight Gain: 51%
Eimeria maxima; 50 ppm in diet
  Average degree of Infection: 1.0
  Ratio: 0.63
  Weight Gain: 70%
Eimeria maxima; 100 ppm in diet
  Average degree of Infection: 0.8
  Ratio: 0.50
  Weight Gain: 37%
Eimeria maxima; 200 ppm in diet
  Average degree of Infection: 1.5
  Ratio: 0.94
  Weight Gain: 10%
Eimeria maxima; chickens, diet, 50 to 200 ppm
  controlling infections: effective in controlling infections
Eimeria necatrix; 25 ppm in diet
  Average degree of Infection: 0.6
  Ratio: 0.33
  Weight Gain: 111%
Eimeria necatrix; 50 ppm in diet
  Average degree of Infection: 0.2
  Ratio: 0.11
  Weight Gain: 99%
Eimeria necatrix; 100 ppm in diet
  Average degree of Infection: 0.0
  Ratio: 0.00
  Weight Gain: 69%
Eimeria necatrix; chickens, diet, 50 to 200 ppm
  controlling infections: effective in controlling infections
Eimeria tenella; 25 ppm in diet, six days
  Average degree of Infection: 3.0
  Weight Gain: 47%
Eimeria tenella; 25 ppm in diet, lesion score treated / infected control
  Ratio: 0.95
Eimeria tenella; [4]
  Ratio: 0.49
  Weight Gain: 102%
  Average degree of Infection: 1.7
Eimeria tenella; 50 ppm in diet, six days
  Average degree of Infection: 2.7
  Weight Gain: 22%
Eimeria tenella; 50 ppm in diet, lesion score treated / infected control
  Ratio: 0.86
Eimeria tenella; [5]
  Ratio: 0.09
  Weight Gain: 97%
  Average degree of Infection: 0.3
Eimeria tenella; 100 ppm in diet, six days
  Average degree of Infection: 1.0
  Weight Gain: 57%
Eimeria tenella; 100 ppm in diet, lesion score treated / infected control
  Ratio: 0.32
Eimeria tenella; [6]
  Ratio: 0.37
  Weight Gain: 60%
  Average degree of Infection: 1.3
Eimeria tenella; 200 ppm in diet, six days
  Average degree of Infection: 1.3
  Weight Gain: 37%
Eimeria tenella; 200 ppm in diet, lesion score treated / infected control
  Ratio: 0.41
Eimeria tenella; chickens, diet, 50 to 200 ppm
  controlling infections: effective in controlling infections
Rumen fluid; 5 μg./ml.
  increase in propionic acid: about 40%
Rumen fluid; 20 μg./ml.
  increase in propionic acid: about 43%
Rumen fluid; 20 micrograms per milliliter, first comparison (with Monensin)
  increase in the production of propionic acid over control: about 57%
solubility; chloroform
  solubility in chloroform: soluble
solubility; ethyl acetate
  solubility in ethyl acetate: soluble
solubility; methanol
  solubility in methanol: soluble
solubility; methylisobutyl ketone
  solubility in methylisobutyl ketone: soluble
solubility; water
  solubility in water: insoluble
[2]
  inhibitory action against growth: exhibits inhibitory action
[3]
  activity against coccidial infections in poultry: excellent activity

## CC[C@@]1([C@@H]2O[C@@H]([C@H]3O[C@@](O)(CO)[C@H](C)C[C@@H]3C)C[C@@H]2C)CC[C@H]([C@]2(C)CC[C@]3(C[C@H](O)[C@@H](C)[C@@H]([C@@H](C)[C@@H](OC)[C@H](C)C(=O)O)O3)O2)O1 [Monensin, reference compound]
Rumen fluid; 10 μg./ml.
  increase of propionic acid over the control: about 20%

Source: US4533553A, “Polycyclic ether antibiotic” (priority 1983, dated 1985)
